Experiments:
[1] = tested on: B. subtilis 168; assay: fitness (endpoint OD595 vs no drug) (fraction); higher = more growth
Outline: (§1)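 Bacterial growth was followed in 384-well plates seeded at OD595 0.01, with 30 µl per well, or 55 µl for S. pneumoniae, in TSB, LB Lennox or CY at 37 °C. OD595 was read every 30 min for 14 h, and each reading had the first reading subtracted as background. Fitness is the background-corrected optical density at entry into stationary phase divided by the robust mean of the no-drug control wells. This ratio is capped at 1.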

[2] = tested on: S. aureus Newman; assay: as above
Outline: as §1

[3] = tested on: S. pneumoniae D39V; assay: as above
Outline: as §1

[4] = tested on: S. aureus DSM 20231; assay: as above
Outline: as §1

[5] = tested on: B. subtilis 168; assay: Bliss interaction score (quartile over a dose matrix) (fitness difference); higher = more antagonism (negative = synergy)
Outline: (§2)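 The Bliss score was calculated by subtracting the expected fitness, the product of single-drug values, from the observed fitness. OD595 at entry into stationary phase, over the plate's robust no-drug mean and capped at 1, served as the fitness readout. Single-drug values were inferred from combination data, and scores are summarised by quartiles across technical, biological and donor/recipient replicates.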

[6] = tested on: S. aureus Newman; assay: as above
Outline: as §2

[7] = tested on: S. pneumoniae D39V; assay: as above
Outline: as §2

[8] = tested on: S. aureus DSM 20231; assay: as above
Outline: as §2

[9] = first compound 0.625 µg/mL, partner 1.25 µg/mL
[10] = first compound 0.625 µg/mL, partner 2.5 µg/mL
[11] = first compound 0.625 µg/mL, partner 5 µg/mL
[12] = first compound 1.25 µg/mL, partner 1.25 µg/mL
[13] = first compound 1.25 µg/mL, partner 2.5 µg/mL
[14] = first compound 1.25 µg/mL, partner 5 µg/mL
[15] = first compound 2.5 µg/mL, partner 1.25 µg/mL
[16] = first compound 2.5 µg/mL, partner 2.5 µg/mL
[17] = first compound 2.5 µg/mL, partner 5 µg/mL
[18] = first compound 0.625 µg/mL, partner 1 µg/mL
[19] = first compound 0.625 µg/mL, partner 2 µg/mL
[20] = first compound 0.625 µg/mL, partner 4 µg/mL
[21] = first compound 1.25 µg/mL, partner 1 µg/mL
[22] = first compound 1.25 µg/mL, partner 2 µg/mL
[23] = first compound 1.25 µg/mL, partner 4 µg/mL
[24] = first compound 2.5 µg/mL, partner 1 µg/mL
[25] = first compound 2.5 µg/mL, partner 2 µg/mL
[26] = first compound 2.5 µg/mL, partner 4 µg/mL
[27] = first compound 0.625 µg/mL, partner 0.625 µg/mL
[28] = first compound 1.25 µg/mL, partner 0.625 µg/mL
[29] = first compound 2.5 µg/mL, partner 0.625 µg/mL
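Throughout, for Bliss interaction score (quartile over a dose matrix): first quartile when negative (synergy) and third quartile when positive (antagonism).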

COc1cccc2c1C(=O)c1c(O)c3c(c(O)c1C2=O)C[C@@](O)(C(=O)CO)C[C@@H]3O[C@H]1C[C@H](N)[C@H](O)[C@H](C)O1 [Doxorubicin] + C[n+]1ccc(-c2cc[n+](C)cc2)cc1 [Paraquat]
fitness [1, 9]: ≥ 1
fitness [1, 10]: 0.924
fitness [1, 11]: 0.862
fitness [1, 12]: 0.892
fitness [1, 13]: 0.861
fitness [1, 14]: 0.876
fitness [1, 15]: 0.686
fitness [1, 16]: 0.656
fitness [1, 17]: 0.595
fitness [2, 9]: 0.712
fitness [2, 10]: 0.715
fitness [2, 11]: 0.744
fitness [2, 12]: 0.742
fitness [2, 13]: 0.792
fitness [2, 14]: 0.743
fitness [2, 15]: 0.732
fitness [2, 16]: 0.759
fitness [2, 17]: 0.761
fitness ([3]; first compound 0.25 µg/mL, partner 1.5 µg/mL): 0.98
fitness ([3]; first compound 0.25 µg/mL, partner 3 µg/mL): 0.936
fitness ([3]; first compound 0.25 µg/mL, partner 6 µg/mL): 0.916
fitness ([3]; first compound 0.5 µg/mL, partner 1.5 µg/mL): 0.992
fitness ([3]; first compound 0.5 µg/mL, partner 3 µg/mL): 0.979
fitness ([3]; first compound 0.5 µg/mL, partner 6 µg/mL): 0.946
fitness ([3]; first compound 1 µg/mL, partner 1.5 µg/mL): 0.9
fitness ([3]; first compound 1 µg/mL, partner 3 µg/mL): 0.886
fitness ([3]; first compound 1 µg/mL, partner 6 µg/mL): 0.872
fitness [4, 9]: 0.858
fitness [4, 10]: 0.828
fitness [4, 11]: 0.823
fitness [4, 12]: 0.882
fitness [4, 13]: 0.835
fitness [4, 14]: 0.8
fitness [4, 15]: 0.782
fitness [4, 16]: 0.761
fitness [4, 17]: 0.744
Bliss interaction score [5]: 0.105
Bliss interaction score [6]: -0.052
Bliss interaction score [7]: 0.0503
Bliss interaction score [8]: -0.0686

COc1cccc2c1C(=O)c1c(O)c3c(c(O)c1C2=O)C[C@@](O)(C(=O)CO)C[C@@H]3O[C@H]1C[C@H](N)[C@H](O)[C@H](C)O1 [Doxorubicin] + Cc1cc(NS(=O)(=O)c2ccc(N)cc2)no1 [Sulfamethoxazol]
fitness ([1]; first compound 0.625 µg/mL, partner 0.5 µg/mL, one replicate): 0.938
fitness [1, 18]: 0.929
fitness [1, 19]: 0.878
fitness [1, 20]: ≥ 1
fitness ([1]; first compound 1.25 µg/mL, partner 0.5 µg/mL, one replicate): 0.883
fitness [1, 21]: 0.885
fitness [1, 22]: 0.865
fitness [1, 23]: 0.893
fitness ([1]; first compound 2.5 µg/mL, partner 0.5 µg/mL, one replicate): 0.969
fitness [1, 24]: 0.723
fitness [1, 25]: 0.665
fitness [1, 26]: 0.695
fitness [2, 18]: 0.852
fitness [2, 19]: 0.856
fitness [2, 20]: 0.854
fitness ([2]; first compound 0.625 µg/mL, partner 8 µg/mL, one replicate): 0.887
fitness [2, 21]: 0.816
fitness [2, 22]: 0.802
fitness [2, 23]: 0.835
fitness ([2]; first compound 1.25 µg/mL, partner 8 µg/mL, one replicate): 0.877
fitness [2, 24]: 0.758
fitness [2, 25]: 0.765
fitness [2, 26]: 0.787
fitness ([2]; first compound 2.5 µg/mL, partner 8 µg/mL, one replicate): 0.875
fitness ([3]; first compound 0.25 µg/mL, partner 1 µg/mL): 0.943
fitness ([3]; first compound 0.25 µg/mL, partner 2 µg/mL): 0.949
fitness ([3]; first compound 0.25 µg/mL, partner 4 µg/mL): 0.965
fitness ([3]; first compound 0.5 µg/mL, partner 1 µg/mL): 0.93
fitness ([3]; first compound 0.5 µg/mL, partner 2 µg/mL): 0.97
fitness ([3]; first compound 0.5 µg/mL, partner 4 µg/mL): 0.954
fitness ([3]; first compound 1 µg/mL, partner 1 µg/mL): 0.904
fitness ([3]; first compound 1 µg/mL, partner 2 µg/mL): 0.936
fitness ([3]; first compound 1 µg/mL, partner 4 µg/mL): 0.92
fitness [4, 18]: 0.831
fitness [4, 19]: 0.83
fitness [4, 20]: 0.812
fitness [4, 21]: 0.791
fitness [4, 22]: 0.911
fitness [4, 23]: 0.874
fitness [4, 24]: 0.737
fitness [4, 25]: 0.869
fitness [4, 26]: 0.845
Bliss interaction score [5]: 0.0735
Bliss interaction score [6]: -0.0666
Bliss interaction score [7]: 0.0685
Bliss interaction score [8]: -0.0832

COc1cccc2c1C(=O)c1c(O)c3c(c(O)c1C2=O)C[C@@](O)(C(=O)CO)C[C@@H]3O[C@H]1C[C@H](N)[C@H](O)[C@H](C)O1 [Doxorubicin] + Cc1ncc([N+](=O)[O-])n1CCO [Metronidazole]
fitness [1, 27]: ≥ 1
fitness [1, 9]: 0.941
fitness [1, 10]: 0.937
fitness [1, 28]: 0.964
fitness [1, 12]: 0.929
fitness [1, 13]: 0.956
fitness [1, 29]: 0.74
fitness [1, 15]: 0.699
fitness [1, 16]: 0.653
fitness [2, 27]: 0.843
fitness ([2]; first compound 0.625 µg/mL, partner 0.781 µg/mL): 0.761
fitness [2, 9]: 0.881
fitness ([2]; first compound 0.625 µg/mL, partner 1.562 µg/mL): 0.76
fitness [2, 10]: 0.853
fitness ([2]; first compound 0.625 µg/mL, partner 3.124 µg/mL): 0.76
fitness [2, 28]: 0.774
fitness ([2]; first compound 1.25 µg/mL, partner 0.781 µg/mL): 0.765
fitness [2, 12]: 0.807
fitness ([2]; first compound 1.25 µg/mL, partner 1.562 µg/mL): 0.793
fitness [2, 13]: 0.793
fitness ([2]; first compound 1.25 µg/mL, partner 3.124 µg/mL): 0.806
fitness [2, 29]: 0.753
fitness ([2]; first compound 2.5 µg/mL, partner 0.781 µg/mL): 0.75
fitness [2, 15]: 0.795
fitness ([2]; first compound 2.5 µg/mL, partner 1.562 µg/mL): 0.751
fitness [2, 16]: 0.732
fitness ([2]; first compound 2.5 µg/mL, partner 3.124 µg/mL): 0.76
fitness ([3]; first compound 0.25 µg/mL, partner 1.073 µg/mL): 0.827
fitness ([3]; first compound 0.25 µg/mL, partner 1.25 µg/mL): 0.993
fitness ([3]; first compound 0.25 µg/mL, partner 2.145 µg/mL): 0.79
fitness ([3]; first compound 0.25 µg/mL, partner 2.5 µg/mL): ≥ 1
fitness ([3]; first compound 0.25 µg/mL, partner 4.29 µg/mL): 0.809
fitness ([3]; first compound 0.25 µg/mL, partner 5 µg/mL): 0.993
fitness ([3]; first compound 0.5 µg/mL, partner 1.073 µg/mL): 0.954
fitness ([3]; first compound 0.5 µg/mL, partner 1.25 µg/mL): ≥ 1
fitness ([3]; first compound 0.5 µg/mL, partner 2.145 µg/mL): 0.895
fitness ([3]; first compound 0.5 µg/mL, partner 2.5 µg/mL): ≥ 1
fitness ([3]; first compound 0.5 µg/mL, partner 4.29 µg/mL): 0.869
fitness ([3]; first compound 0.5 µg/mL, partner 5 µg/mL): 0.996
fitness ([3]; first compound 1 µg/mL, partner 1.073 µg/mL): 0.895
fitness ([3]; first compound 1 µg/mL, partner 1.25 µg/mL): 0.969
fitness ([3]; first compound 1 µg/mL, partner 2.145 µg/mL): 0.907
fitness ([3]; first compound 1 µg/mL, partner 2.5 µg/mL): 0.981
fitness ([3]; first compound 1 µg/mL, partner 4.29 µg/mL): 0.843
fitness ([3]; first compound 1 µg/mL, partner 5 µg/mL): 0.944
fitness [4, 27]: 0.899
fitness [4, 9]: 0.972
fitness [4, 10]: 0.994
fitness [4, 28]: 0.874
fitness [4, 12]: 0.974
fitness [4, 13]: 0.965
fitness [4, 29]: 0.791
fitness [4, 15]: 0.84
fitness [4, 16]: 0.897
Bliss interaction score [5]: 0.0987
Bliss interaction score [6]: -0.0468
Bliss interaction score [7]: 0.0624
Bliss interaction score [8]: 0.0515

From the supplement of paper PMC10627819
